Source: US20020004218A1, “Methods for identifying compounds useful for inhibiting geranylgeranyl diphosphate synthase” (priority 2000, published 2002)

Assays:
[1] = target: T1, rat liver squalene synthase (Rattus norvegicus, UniProt Q02769); settings: cited from earlier work
T1 construct: host or cells: rat liver
T1 sequence (Q02769 1-416): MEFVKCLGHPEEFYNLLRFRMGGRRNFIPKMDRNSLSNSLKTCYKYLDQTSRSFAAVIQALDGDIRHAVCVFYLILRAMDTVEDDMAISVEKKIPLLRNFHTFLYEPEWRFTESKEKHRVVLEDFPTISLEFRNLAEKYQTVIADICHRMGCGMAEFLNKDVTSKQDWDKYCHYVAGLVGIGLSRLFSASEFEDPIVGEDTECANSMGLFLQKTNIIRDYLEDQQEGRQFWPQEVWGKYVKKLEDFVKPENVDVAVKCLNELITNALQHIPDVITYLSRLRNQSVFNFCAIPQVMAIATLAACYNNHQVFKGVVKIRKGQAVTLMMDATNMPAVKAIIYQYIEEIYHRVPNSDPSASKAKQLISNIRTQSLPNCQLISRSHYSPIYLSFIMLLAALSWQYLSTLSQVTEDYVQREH

[2] = test system: sterol synthesis; settings: incorporation of 14C-MVA into sterol, rat liver cell-free system; read-out: IC50, block of sterol synthesis; cited from earlier work
[3] = test system: osteoclasts; settings: osteoclasts in culture; cited from earlier work
[4] = test system: geranylgeranyl diphosphate synthase
From the text: The present invention relates to a method for identifying inhibitors of geranylgeranyl diphosphate synthase comprising:
a). contacting a putative geranylgeranyl diphosphate synthase inhibitor with a geranylgeranyl diphosphate synthase assay solution, and
b). determining, i.e. comparing, the geranylgeranyl diphosphate synthase activity of said assay solution with a geranylgeranyl diphosphate synthase assay solution not contacted with said putative inhibitor, in order to determine the amount of inhibition.
In these methods the geranylgeranyl diphosphatesynthase assay solution is typically an aqueous solution. The inhibition effect is measured with respect to the catalysis of an appropriate reaction that one of ordinary skill in the art can select. Reaction times, conditions, quatitation methods, and other variables are chosen for convenience to obtain a readily quantitated system for measuring the inhibition of the geranylgeranyl diphosphate synthase.
Additionally, in these methods of identifying inhibitors of geranylgeranyl diphosphate synthase, the enzyme can be used in a crude, unpurified state, from various tissues sources, e.g., liver. Alternatively, the enzyme can be used in a partially purified state, a purified state, or as an expressed form of the enzyme, e.g., the expressed human enzyme.

| Compound | inhibition of squalene synthase [1] | IC50 [2] | bone resorption [3] | osteoclast formation [3] | inhibition of geranylgeranyl diphosphate synthase [4] |
| --- | --- | --- | --- | --- | --- |
| O=P(O)(O)C(O)(CCN1CCCC1)P(=O)(O)O [EB 1053, 1-hydroxy-3-(1-pyrrolidinyl)-propylidene-1,1-bisphosphonic acid] | potent, nanomolar inhibitors |  |  |  |  |
| O=P(O)(O)C(NC1CCCCCC1)P(=O)(O)O [YM 175, Cycloheptylaminomethylene-1,1-bisphosphonic acid] | potent, nanomolar inhibitors |  |  |  |  |
| NCCCC(O)(P(=O)(O)O)P(=O)(O)O [alendronate, 4-amino-1-hydroxybutylidene-1,1-bisphosphonic acid monosodium trihydrate] | comparatively little effect | 168 nM | inhibited | inhibited |  |
| CC[C@H](C)C(=O)O[C@H]1C[C@@H](C)C=C2C=C[C@H](C)[C@H](CC[C@@H]3C[C@@H](O)CC(=O)O3)[C@H]21 [lovastatin] |  |  | inhibited | inhibited |  |
| NCCC(O)(P(=O)(O)O)P(=O)(O)O [pamidronate, 3-amino-1-hydroxypropylidene-1,1-bisphosphonic acid] | comparatively little effect | 420 nM |  |  |  |
| O=P(O)(O)C(O)(Cc1cccnc1)P(=O)(O)O [risedronate, 1-hydroxy-2-(3-pyridinyl)-ethylidene-1,1-bisphosphonic acid] |  |  |  |  | specific nanomolar inhibitors |
